A value given as a limit tells only on which side of the number the result lay.

The target of this assay is S1P1/EDG1 (Homo sapiens, UniProt P21453). Kind of assay: S1P1 CRE-bla CHOK1 reporter assay, inhibition of Forskolin induced cAMP. In kind it is cell-based. The following applies: agonist activity range, S1P1 CRE-bla CHOK1, 2 μM Forskolin; read-out: S1P1 ACTIVITY
S1P1/EDG1, sequence (P21453 whole entry): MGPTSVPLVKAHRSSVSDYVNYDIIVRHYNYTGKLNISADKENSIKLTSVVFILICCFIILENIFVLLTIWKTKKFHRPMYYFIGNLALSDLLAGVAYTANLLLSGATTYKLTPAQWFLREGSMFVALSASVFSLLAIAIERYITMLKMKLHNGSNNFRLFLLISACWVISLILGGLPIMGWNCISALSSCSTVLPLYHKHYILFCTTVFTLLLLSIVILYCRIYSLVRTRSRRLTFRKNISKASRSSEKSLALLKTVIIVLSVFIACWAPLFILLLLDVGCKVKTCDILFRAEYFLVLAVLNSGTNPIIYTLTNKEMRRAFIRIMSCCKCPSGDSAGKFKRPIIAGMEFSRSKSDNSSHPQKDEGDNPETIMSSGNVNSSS
As for the experimental part: Generation of S1P1-Mediated Inhibition of cAMP Reporter Assay
A mammalian expression plasmid containing S1P1/EDG1 cloned into pcDNA3.1 was purchased from Missouri S&T cDNA Resource Centre. […] S1P1/pcDNA3.1 was transfected into the CRE-bla CHO K1 (Invitrogen) cell line, and stable single cell clones were selected using standard techniques.
S1P1 CRE-Bla CHOK1 Reporter Assay—Characterization of S1P1 Agonists
Cells were seeded into 384-well black wall/clear bottom plates at 10^4 cells/well/19.5 μl assay media (DMEM-phenol free, 0.5% charcoal/dextran stripped serum, 2 mM glutamine, 0.1 mM NEAA, 1 mM Na-Pyruvate, 25 mM Hepes) and incubated for 18 hrs at 37° C. in 5% CO2. Dose response curves (10-point) were generated in 10 mM Hepes, 0.1% Pluronic F127, in the presence of Forskolin. Cells were treated with 0.5 μl compound in the presence of 2 μM Forskolin for 4 hrs at 37° C. The FRET-based β-lactamase fluorescent substrate (LiveBLAzer™-FRET B/G Loading Kit CC4-AM; Invitrogen) was prepared according to manufacturer's directions, and incubated with cells for 2 hrs at room temperature. […] Data was analyzed by non-linear regression to determine the EC50 for inhibition of Forskolin induced cAMP.
As for `CC(C)Oc1ccc(-c2nc(-c3cccc4c3CCC4N3CCC(O)CC3)no2)cc1C#N` (racemic) [Compound 16, 5-(3-(1-(4-hydroxypiperidin-1-yl)-2,3-dihydro-1H-inden-4-yl)-1,2,4-oxadiazol-5-yl)-2-isopropoxybenzonitrile], the EC50 lay in the range of 0.05 to 0.5 nM.
Then `CC(C)Oc1ccc(-c2nc(-c3cccc4c3CC[C@@H]4N3CC(C(=O)N(C)C)C3)no2)cc1C#N` [Compound 205], with 0.05 to 0.5 nM; and `CC(C)Oc1ccc(-c2nc(-c3cccc4c3CC[C@@H]4NS(=O)(=O)CC(=O)N3CCOCC3)no2)cc1C#N` [Compound 191], with 0.05 to 0.5 nM.
Then `CC(C)Oc1ccc(-c2nc(-c3cccc4c3CC[C@@H]4N(C)C(=O)CO)no2)cc1C#N` [Compound 110], with 0.05 to 0.5 nM; and `CC(C)Oc1ccc(-c2nc(-c3cccc4c3CCC4NC3CCCCC3)no2)cc1C#N` (racemic) [Compound 22], with over 5 nM; and `CC(C)Oc1ccc(-c2nc(-c3cccc4c3CC[C@H]4NS(=O)(=O)CC(N)=O)no2)cc1C#N` [Compound 197], with under 0.05 nM.
For the compound `CC(C)Oc1ccc(-c2nc(-c3cccc4c3CC[C@H]4NC(=O)N3CC[C@@H](N)C3)no2)cc1C#N` [Compound 221], the EC50 fell in the range of 0.05 to 0.5 nM.
Next, `CC(C)Oc1ccc(-c2nc(-c3cccc4c3CCC4NC[C@H](O)CO)no2)cc1C#N` (mixture of isomers) [Compound 41]: 0.05 to 0.5 nM; `CCOC(=O)N[C@H]1CCc2c(-c3noc(-c4ccc(OC(C)C)c(C#N)c4)n3)cccc21` [Compound 152]: 0.5 to 5 nM; `CC(C)Oc1ccc(-c2nc(-c3cccc4c3CCC4N3CC(C(=O)O)C3)no2)cc1C#N` (racemic) [Compound 18, 1-(4-(5-(3-cyano-4-isopropoxyphenyl)-1,2,4-oxadiazol-3-yl)-2,3-dihydro-1H-inden-1-yl)azetidine-3-carboxylic acid]: under 0.05 nM.
Then `CC(C)Oc1ccc(-c2nc(-c3cccc4c3CCC4NS(=O)(=O)c3ccccc3)no2)cc1C#N` (stereo in doubt) [Compound 79], with 0.5 to 5 nM.
Then `CC(C)Oc1ccc(-c2nc(-c3cccc4c3CC[C@H]4NS(=O)(=O)CCN3CC[C@@H](O)C3)no2)cc1C#N` [Compound 171], with 0.05 to 0.5 nM; and `COC(=O)CCCN[C@H]1CCc2c(-c3noc(-c4ccc(OC(C)C)c(C#N)c4)n3)cccc21` [Compound 145], with under 0.05 nM; and `CC(C)Oc1ccc(-c2nc(-c3cccc4c3CCC4N3CCN(CCO)CC3)no2)cc1C#N` (racemic) [Compound 24], with 0.05 to 0.5 nM.
`CC(C)Oc1ccc(-c2nc(-c3cccc4c3CC[C@H]4N)no2)cc1` [Compound 96, (R)-4-(5-(4-isopropoxyphenyl)-1,2,4-oxadiazol-3-yl)-2,3-dihydro-1H-inden-1-amine]: the EC50 was over 5 nM.
Take `CCOc1ccc(-c2nc(-c3cccc4c3CC[C@H]4O)no2)cc1C#N` [Compound 3]: the EC50 was 0.05 to 0.5 nM.
Then `CC(C)Oc1ccc(-c2nc(-c3cccc4c3CC[C@H]4NCC(=O)O)no2)cc1C#N` [Compound 61], with under 0.05 nM; and `CC(C)Oc1ccc(-c2nc(-c3cccc4c3CC[C@H]4N3CC(C(=O)O)C3)no2)cc1C#N` [Compound 202, (R)-1-(4-(5-(3-cyano-4-isopropoxyphenyl)-1,2,4-oxadiazol-3-yl)-2,3-dihydro-1H-inden-1-yl)azetidine-3-carboxylic acid], with under 0.05 nM; and `CNC(=O)C1CN([C@H]2CCc3c(-c4noc(-c5ccc(OC(C)C)c(C#N)c5)n4)cccc32)C1` [Compound 206], with 0.05 to 0.5 nM.
Next, `CN[C@@H]1CCc2c(-c3noc(-c4ccc(OC(C)C)c(C#N)c4)n3)cccc21` [Compound 143]: 0.05 to 0.5 nM; `CC(C)Oc1ccc(-c2nc(-c3cccc4c3CC[C@H]4NC(=O)N3CC[C@H](N)C3)no2)cc1C#N` [Compound 222]: 0.5 to 5 nM.
Next, `CNCCNC1CCc2c(-c3noc(-c4ccc(OC(C)C)c(C#N)c4)n3)cccc21` (racemic) [Compound 27]: 0.5 to 5 nM.
With `CC(C)Oc1ccc(-c2nc(-c3cccc4c3CC[C@@H]4NS(N)(=O)=O)no2)cc1C#N` [Compound 249], the EC50 was under 0.05 nM.
In the case of `CC(C)Oc1ccc(-c2nc(-c3cccc4c3CC[C@@H]4NC(=O)N3CCC(CO)CC3)no2)cc1C#N` [Compound 218], the EC50 was in the range of 0.05 to 0.5 nM.
Then `CC(C)Oc1ccc(-c2nc(-c3cccc4c3CC[C@@H]4NCC(=O)N(C)C)no2)cc1C(N)=O` [Compound 121], with over 5 nM; and `CC(C)Oc1ccc(-c2nc(-c3cccc4c3CC[C@@H]4NC[C@@H](O)[C@H](O)[C@H](O)CO)no2)cc1C#N` [Compound 119, 2-isopropoxy-5-(3-((S)-1-(((2R,3S,4R)-2,3,4,5-tetrahydroxypentyl)amino)-2,3-dihydro-1H-inden-4-yl)-1,2,4-oxadiazol-5-yl)benzonitrile], with 0.5 to 5 nM; and `CC(C)Oc1ccc(-c2nc(-c3cccc4c3CC[C@H]4NS(=O)(=O)CCCO)no2)cc1C#N` [Compound 188], with under 0.05 nM.
Then `CC(C)Oc1ccc(-c2nc(-c3cccc4c3CCC4NS(=O)(=O)c3ccc(C(=O)O)cc3)no2)cc1C#N` (stereo in doubt) [Compound 80], with over 5 nM; and `CC(C)Oc1ccc(-c2nc(-c3cccc4c3CCC4NC[C@H](C)O)no2)cc1C#N` (mixture of isomers) [Compound 43], with 0.05 to 0.5 nM.
Take `CC(C)Oc1ccc(-c2nc(-c3cccc4c3CC[C@H]4NCC(C)(C)O)no2)cc1C#N` [Compound 57]: the EC50 lay within 0.5 to 5 nM.
Turning to `CC(C)Oc1ccc(-c2nc(-c3cccc4c3CC[C@@H]4NCc3ccccc3)no2)cc1C#N` [Compound 157], the EC50 was in the range of 0.5 to 5 nM.
Then `CC(C)Oc1ccc(-c2nc(-c3cccc4c3CC[C@@H]4NS(=O)(=O)CCC3CCC3)no2)cc1C#N` [Compound 168], with 0.05 to 0.5 nM.
Consider `CC(C)Oc1ccc(-c2nc(-c3cccc4c3CC[C@@H]4NC(=O)N3CC[C@@H](N(C)C)C3)no2)cc1C#N` [Compound 244], for which the EC50 lay in the range of 0.5 to 5 nM.
Then `CCOCCS(=O)(=O)N[C@@H]1CCc2c(-c3noc(-c4ccc(OC(C)C)c(C#N)c4)n3)cccc21` [Compound 165], with 0.05 to 0.5 nM; and `CC(C)Oc1ccc(-c2nc(-c3cccc4c3CC[C@H]4NS(N)(=O)=O)no2)cc1C#N` [Compound 248, (R)-N-(4-(5-(3 cyano-4-isopropoxyphenyl)-1,2,4-oxadiazol-3-yl)-2,3-dihydro-1H-inden-1-yl)sulfamide], with under 0.05 nM.
Then `CC(C)Oc1ccc(-c2nc(-c3cccc4c3CC[C@@H]4N(C)C)no2)cc1C#N` [Compound 210], with 0.5 to 5 nM; and `COCCOc1ccc(-c2nc(-c3cccc4c3CCC4NCCO)no2)cc1C#N` (racemic) [Compound 106], with over 5 nM.
`CC(C)Oc1ccc(-c2nc(-c3cccc4c3CC[C@@H]4NC(=O)N3CC[C@@H](N)C3)no2)cc1C#N` [Compound 223]: the EC50 is 0.5 to 5 nM.
Take `CC(C)Oc1ccc(-c2nc(-c3cccc4c3CC[C@H]4N3CC(O)C3)no2)cc1C#N` [Compound 83, (R)-5-(3-(1-(3-hydroxyazetidin-1-yl)-2,3-dihydro-1H-inden-4-yl)-1,2,4-oxadiazol-5-yl)-2-isopropoxybenzonitrile]: the EC50 is 0.05 to 0.5 nM.
Next, `CC(C)Oc1ccc(-c2nc(-c3cccc4c3CC[C@@H]4NC(=O)N3CCC[C@H](O)C3)no2)cc1C#N` [Compound 216]: 0.05 to 0.5 nM; `N#Cc1cc(-c2nc(-c3cccc4c3CCC4NCCO)no2)ccc1OC[C@@H](O)CO` (mixture of isomers) [Compound 104]: over 5 nM; `CC(C)Oc1ccc(-c2nc(-c3cccc4c3CC[C@@H]4NC(=O)N3CCC(O)CC3)no2)cc1C#N` [Compound 241]: 0.05 to 0.5 nM.
Next, `CC(C)Oc1ccc(-c2nc(-c3cccc4c3CC[C@H]4NCCF)no2)cc1C#N` [Compound 124, (R)-5-(3-(1-((2-fluoroethyl)amino)-2,3-dihydro-1H-inden-4-yl)-1,2,4-oxadiazol-5-yl)-2-isopropoxybenzonitrile]: 0.05 to 0.5 nM; `CC(C)Oc1ccc(-c2nc(-c3cccc4c3CC[C@H]4NCC(F)F)no2)cc1C#N` [Compound 140]: 0.5 to 5 nM; `CC(C)Oc1ccc(-c2nc(-c3cccc4c3CC[C@H]4NC(=O)N3CCC[C@H](O)C3)no2)cc1C#N` [Compound 215]: 0.5 to 5 nM.
Then `CC(C)Oc1ccc(-c2nc(-c3cccc4c3CC[C@@H]4N3CC(O)C3)no2)cc1C#N` [Compound 84, (S)-5-(3-(1-(3-hydroxyazetidin-1-yl)-2,3-dihydro-1H-inden-4-yl)-1,2,4-oxadiazol-5-yl)-2-isopropoxybenzonitrile], with 0.05 to 0.5 nM; and `CC(=O)N[C@@H]1CCc2c(-c3noc(-c4ccc(OC(C)C)c(C#N)c4)n3)cccc21` [Compound 138, (R)-N-(4-(5-(3-cyano-4-isopropoxyphenyl)-1,2,4-oxadiazol-3-yl)-2,3-dihydro-1H-inden-1-yl)acetamide], with under 0.05 nM; and `CC(C)Oc1ccc(-c2nc(-c3cccc4c3CC[C@@H]4NC(=O)N3CCC(N(C)C)CC3)no2)cc1C#N` [Compound 247], with 0.5 to 5 nM.
Regarding `CC(C)Oc1ccc(-c2nc(-c3cccc4c3CC[C@@H]4NC(=O)N3CC[C@H](N)C3)no2)cc1C#N` [Compound 224], the EC50 is 0.5 to 5 nM.

The values above are taken from patent publication US9388147B2 (Receptos, Inc., priority 2009, dated 2016).
